From paper PMC6968694 (Emerging Microbes & Infections, 2020) come the findings set out here.

The target in series [1] is T1, phBCCPPurT (Pyrococcus horikoshii, UniProt O58056).
T1 construct: gene purT
Briefly: biochemical. The series is classed as binding. The settings on record: read-out: apparent Kd.

Series [2] concerns the molecule itself. Description: SEC. In general terms: In gel filtration, larger molecules generally elute earlier.

The term stoichiometry N denotes the number of molecules, sites or subunits per partner or assembly.

T1 sequence (O58056 whole entry): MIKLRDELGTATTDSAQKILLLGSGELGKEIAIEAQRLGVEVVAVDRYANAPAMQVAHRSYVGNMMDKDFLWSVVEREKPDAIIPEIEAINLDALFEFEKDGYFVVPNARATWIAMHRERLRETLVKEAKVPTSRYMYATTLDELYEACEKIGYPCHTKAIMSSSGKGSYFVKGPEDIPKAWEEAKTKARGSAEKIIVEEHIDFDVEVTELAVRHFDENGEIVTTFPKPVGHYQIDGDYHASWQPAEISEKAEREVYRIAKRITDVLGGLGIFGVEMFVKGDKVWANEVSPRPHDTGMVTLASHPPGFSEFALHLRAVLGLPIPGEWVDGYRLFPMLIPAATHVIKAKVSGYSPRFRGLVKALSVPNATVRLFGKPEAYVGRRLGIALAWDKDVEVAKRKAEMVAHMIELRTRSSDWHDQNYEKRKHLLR

Consider `Nc1ncnc2c1ncn2[C@@H]1O[C@H](CO[P@](=O)(O)O[P@](=O)(O)O[P@@](=O)(O)S)[C@@H](O)[C@H]1O` [ATPγS], for which, in series [1], the Kd was determined as 41.8 ± 7.21 µM.

B1: Glycinamide-RNase-transformylase T from Mycobacterium tuberculosis (enzyme)
chain: MIDGWTEEQHEPTVRHERPAAPQDVRRVMLLGSAEPSRELAIALQGLGAEVIAVDGYVGAPAHRIADQSVVVTMTDAEELTAVIRRLQPDFLVTVTAAVSVDALDAVEQADGECTELVPNARAVRCTADREGLRRLAADQLGLPTAPFWFVGSLGELQAVAVHAGFPLLVSPVAGVAGQGSSVVAGPNEVEPAWQRAAGHQVQPQTGGVSPRVCAESVVEIEFLVTMIVVCSQGPNGPLIEFCAPIGHRDADAGELESWQPQKLSTAALDAAKSIAARIVKALGGRGVFGVELMINGDEVYFADVTVCPAGSAWVTVRSQRLSVFELQARAILGLAVDTLMISPGAARVINPDHTAGRAAVGAAPPADALTGALGVPESDVVIFGRGLGVALATAPEVAIARERAREVASRLNVPDSRE
notes: also called MtbPurT; PurT
In the case of B1, in series [2], the “stoichiometry N” value worked out at 2.
